According to patent US8338420B1, “Treatment of Parkinson's disease and enhancement of dopamine signal using PDE 10 inhibitor” (Mitsubishi Tanabe Pharma Corporation, priority 2002, dated 2012):
pIC50: −log10 of the molar value.

Assays:
[1] = Brain uptake (integration plot method, PS) and PDE10 binding occupancy in the brain; type: in vivo; settings: rat, 1 mg/kg, i.v.
Description: Different from other tissue, the brain has the blood brain barrier (BBB) to restrict and regulate the movement of molecules between the blood and the brain. BBB consists of brain capillary endothelial cells. The brain capillary endothelial cells are connected through tight junction, and nutrients and drugs in the blood are required to pass transcellularly through the brain capillary endothelial cells. As a mechanism for the drugs to pass through the BBB, there are mentioned the following five routes; 1) passive diffusion, 2) carrier-mediated transport, 3) receptor-mediated transcytosis, 4) absorptive-mediated transcytosis and 5) active efflux transport by P-glycoprotein. The rate of the compound to pass through the BBB and enter the brain (PS) via one or plurals of these mechanisms can be measured by known in vivo experimental assays such as in situ brain perfusion, integration plot method, etc., or by the known in vitro experimental assays such as primary cultured brain capillary endothelial cells, or an established immortalized brain capillary endothelial cell line, etc. […]
Further, Compound A (1 mg/kg, i.v.) was intravenously administered to rat, and according to integration plot method, a rate (PS) was measured for Compound A to enter the brain by passing through the blood brain barrier (BBB), and occupancy of PDE10 binding in the brain was analyzed.

PDE8 (PDE8A) = target: T1, PDE8 (PDE8A) (Homo sapiens, UniProt O60658); assay: PDE assay, recombinant human PDE8A; type: biochemical; settings: substrate about 4.8 nM [3H]-cAMP and 0.1 μM cAMP
T1 construct: His tag (hexahistidine, pcDNA4/HisMax) (N); made in house
T1 sequence (O60658 whole entry): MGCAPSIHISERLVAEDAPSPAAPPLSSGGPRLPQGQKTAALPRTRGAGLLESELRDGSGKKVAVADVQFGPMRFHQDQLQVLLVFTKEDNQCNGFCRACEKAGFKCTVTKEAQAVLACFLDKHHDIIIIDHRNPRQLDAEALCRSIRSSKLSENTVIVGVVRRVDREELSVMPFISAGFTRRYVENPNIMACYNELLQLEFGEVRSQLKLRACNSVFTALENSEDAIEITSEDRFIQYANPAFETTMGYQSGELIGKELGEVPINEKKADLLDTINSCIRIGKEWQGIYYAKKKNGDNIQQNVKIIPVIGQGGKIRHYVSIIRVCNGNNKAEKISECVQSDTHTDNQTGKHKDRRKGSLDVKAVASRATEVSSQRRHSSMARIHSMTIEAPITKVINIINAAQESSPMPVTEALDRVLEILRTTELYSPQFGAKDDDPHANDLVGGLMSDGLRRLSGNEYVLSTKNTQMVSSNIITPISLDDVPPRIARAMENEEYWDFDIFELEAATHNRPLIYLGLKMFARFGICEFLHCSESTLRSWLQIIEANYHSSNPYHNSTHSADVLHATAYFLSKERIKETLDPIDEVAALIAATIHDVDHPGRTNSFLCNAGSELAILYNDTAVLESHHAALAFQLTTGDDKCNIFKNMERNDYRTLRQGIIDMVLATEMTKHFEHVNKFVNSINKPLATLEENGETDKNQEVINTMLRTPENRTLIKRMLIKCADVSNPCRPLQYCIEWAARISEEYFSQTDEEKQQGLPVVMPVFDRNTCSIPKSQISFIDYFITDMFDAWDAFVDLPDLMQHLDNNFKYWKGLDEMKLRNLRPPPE
Description: Based on the information of cDNA sequence of human PDE7A (Genbank/EMBL Accession No. NM002603), a cDNA encoding human PDE7A was cloned by PCR method, according to a method described in Sasaki et al. (Sasaki et al., Biochem. Biophys. Res. Commun., vol. 271, pp. 575-583, 2000). Further, based on the information of cDNA sequence of human PDE8A (Genbank/EMBL Accession No. AF388183), a cDNA encoding human PDE8A was cloned by PCR method, according to a method described in Gamanuma et al. (Gamanuma et al., Cell Signal, 2003, vol. 15, pp. 565-574). Further, a cDNA encoding human PDE11A was obtained, according to a method reported in Yuasa et al. (Yuasa et al., J. Biol. Chem., vol. 275, pp. 31469-31479, 2000). Using these cDNAs, recombinant proteins of human PDE7A, human PDE8A, and human PDE11A were prepared as follows.
DNA fragments comprising a cDNA encoding human PDE7A, human PDE8A or human PDE11A were linked to pcDNA4/HisMax (available from Invitrogen), to give a vector plasmid for expression of human proteins, with a histidine tag peptide (hexahistidine), added to the N-terminus. COS-7 cells were transfected with these vector plasmids, and the cells were cultured in Dulbecco's modified Eagle medium containing 10% bovine fetal serum for about 24 hours. […]

COc1ccc(-c2cc(N3CCCC3)nc(/C=C/c3nc(-n4ccnc4)c4ccccc4n3)n2)cc1OC [Compound A, 2-{(E)-2-[4-(1-imidazolyl)-quinazolin-2-yl]}ethenyl-4-(3,4-dimethoxy)phenyl-6-(pyrrolidin-1-yl)pyrimidine]
occupancy of PDE10 binding in the brain [1]: excellent PDE10 binding behaviors inside the brain | brain uptake and penetration (rate PS through the BBB) ([1]; integration plot method): good brain uptake and penetration characteristics | pIC50 (PDE8 (PDE8A)): < 6.00
